{
  "source": "paper PMC6301270",
  "about": "(MedChemComm, 2018)",
  "key": {"HeLa cells": {"system": "HeLa cells", "test": "HeLa cell assay (cytotoxicity)", "type": "cell-based", "conditions": "Homo sapiens, HeLa cells, 48 hours, resazurin, read-out: HeLa IC50", "method": "HeLa cells were cultured in DMEM medium supplemented with 10% fetal bovine serum and antibiotics (penicillin/streptomycin/amphotericin B) at 37 °C in a 5% CO2 incubator. On the day prior to compound addition, cells were plated in 96-well plates at 2 × 10^4 cells per well. Compounds were added to the cells in 3-fold serial dilutions and incubation at 37 °C in a 5% CO2 incubator continued for 48 hours. Twenty μl resazurin reagent (0.5 mM resazurin in phosphate-buffered saline) was added to each well and, after a 2-hour incubation, fluorescence (Exc560/Em590) was measured in a plate reader. Percentage cell viability in drug-treated wells was calculated from the fluorescent readings obtained relative to those in wells containing control, untreated cells. Plots of % cell viability vs. log[compound] were used to determine IC50 values by non-linear regression analysis using GraphPad Prism."}, "[1]": {"system": "T.b. brucei (strain 427) bloodstream form parasites", "test": "T.b. brucei single concentration screen (10 μM)", "conditions": "for viability at 10 µM: Trypanosoma brucei, read-out: T.b.brucei % viability (10 µM); for T.b.brucei % viability (10 µM): single concentration 10 µM, % parasite viability relative to non-treated parasites"}, "[2]": {"system": "T.b. brucei (strain 427) bloodstream form parasites", "test": "Trypanosoma brucei assay, dose–response (this study)", "type": "cell-based", "conditions": "for IC50: Trypanosoma brucei; for Selectivity index: calculated as IC50(HeLa)/IC50(T.bb)"}, "T.b. brucei": {"system": "T.b. brucei", "design": "method as in https://www.pathogenbox.org/", "conditions": "Table 1, kinetoplastid category; ref https://www.pathogenbox.org/; read-out: T. brucei brucei IC50 (μM) Pathogen Box; cited from earlier work"}, "[3]": {"conditions": "Table 1, kinetoplastid category, 48 hours at 37 °C, resazurin, read-out: T. brucei brucei IC50 (μM) This study"}, "[4]": {"conditions": "Table 2, remaining Pathogen Box, 48 hours at 37 °C, resazurin, read-out: T. brucei brucei IC50 (μM) This study"}, "[5]": {"conditions": "pIC50 values (M), read-out: pIC50 (T.b. brucei), this study (converted)"}},
  "note": "Entries after “also recorded” stand apart in the source; their conditions may differ. Like-named read-outs stand apart in the source and are kept apart here.",
  "data": [
    {"smiles": "O=C(Nc1ccc(F)c(-c2nc3cc(-c4ccccc4)cnc3[nH]2)c1)N1CCCC1", "note": "[Compound 2, FC1=C(C=C(NC(=O)N2CCCC2)C=C1)C1=NC2=CC(=CN=C2N1)C1=CC=CC=C1]", "values": [
      {"measurement": "IC50", "setting": "HeLa cells; Table 1", "result": 800, "unit": "nM"},
      {"measurement": "viability at 10 µM", "setting": "[1]", "result": 2, "unit": "%"},
      {"measurement": "IC50", "setting": "[2]; [3]", "result": 0.049, "unit": "µM"},
      {"measurement": "IC50", "setting": "T.b. brucei", "result": "< 0.13", "unit": "µM"}
    ]},
    {"smiles": "O=C(Nc1ccc2c(c1)B(O)OC2)c1ccccc1C(F)(F)F", "note": "[Compound 3, OB1OCc2ccc(NC(=O)c3ccccc3C(F)(F)F)cc12]", "values": [
      {"measurement": "IC50", "setting": "HeLa cells; Table 1", "result": "> 25000", "unit": "nM"},
      {"measurement": "viability at 10 µM", "setting": "[1]", "result": 0, "unit": "%"},
      {"measurement": "IC50", "setting": "[2]; [3]", "result": 0.14, "unit": "µM"},
      {"measurement": "IC50", "setting": "T.b. brucei", "result": 0.15, "unit": "µM"}
    ]},
    {"smiles": "CCc1ccccc1-n1c(C)cn2c3c(=O)n(C(C(=O)OC)C(C)C)c(=O)n(C)c3nc12", "note": "(centres unmarked) [Compound 4, CCc1ccccc1n2c(C)cn3c4C(=O)N(C(C(C)C)C(=O)OC)C(=O)N(C)c4nc23]", "values": [
      {"measurement": "IC50", "setting": "HeLa cells; Table 1", "result": "> 25000", "unit": "nM"},
      {"measurement": "viability at 10 µM", "setting": "[1]", "result": 0, "unit": "%"},
      {"measurement": "IC50", "setting": "[2]; [3]", "result": 0.03, "unit": "µM"},
      {"measurement": "IC50", "setting": "T.b. brucei", "result": "< 0.13", "unit": "µM"}
    ]},
    {"smiles": "N=C(N)c1ccc(-c2cc(-c3ccccc3)on2)cc1", "note": "[Compound 26, NC(=N)c1ccc(cc1)c2cc(on2)c3ccccc3]", "values": [
      {"measurement": "viability at 10 µM", "setting": "[1]", "result": 14, "unit": "%"},
      {"measurement": "T.b.brucei % viability (10 µM)", "setting": "[1]", "result": "did not sufficiently reduce cell viability"},
      {"measurement": "IC50", "setting": "T.b. brucei", "result": 4.06, "unit": "µM"}
    ]},
    {"smiles": "CCN(CC)S(=O)(=O)c1ccc(C(=O)Nc2cc(C)nn2-c2nc(C)c(C)c(=O)[nH]2)cc1", "note": "[Compound 27, CC1=C(C)C(NC(N2N=C(C)C=C2NC(C3=CC=C(S(=O)(N(CC)CC)=O)C=C3)=O)=N1)=O]", "values": [
      {"measurement": "viability at 10 µM", "setting": "[1]", "result": 58, "unit": "%"},
      {"measurement": "T.b.brucei % viability (10 µM)", "setting": "[1]", "result": "did not sufficiently reduce cell viability"},
      {"measurement": "IC50", "setting": "T.b. brucei", "result": 5.3, "unit": "µM"}
    ]},
    {"smiles": "N=C(N)Nc1ccc(-c2ccc(-c3ccc(NC(=N)N)cc3Cl)o2)c(Cl)c1", "note": "[Compound 32, NC(=N)Nc1ccc(c(Cl)c1)c2oc(cc2)c3ccc(NC(=N)N)cc3Cl]", "values": [
      {"measurement": "viability at 10 µM", "setting": "[1]", "result": 17, "unit": "%"},
      {"measurement": "T.b.brucei % viability (10 µM)", "setting": "[1]", "result": "did not sufficiently reduce cell viability"},
      {"measurement": "IC50", "setting": "T.b. brucei", "result": 1.03, "unit": "µM"}
    ]},
    {"smiles": "Cc1ccc2c(c1C)NC(=O)C21NN=C(c2ccccc2)S1", "note": "(centres unmarked) [Compound 54, Cc1ccc2c(NC(=O)C23NN=C(S3)c4ccccc4)c1C]", "values": [
      {"measurement": "IC50", "setting": "HeLa cells; Table 2", "result": 6600, "unit": "nM"},
      {"measurement": "viability at 10 µM", "setting": "[1]", "result": 3, "unit": "%"},
      {"measurement": "T.b. brucei inhibition in words, this study", "setting": "[2]", "result": "sub-micromolar range"},
      {"measurement": "IC50", "setting": "[2]; [4]", "result": 1, "unit": "µM"},
      {"measurement": "IC50", "setting": "[2]; [5]", "result": "< 1", "unit": "µM"},
      {"measurement": "Selectivity index", "setting": "[2]", "result": 6.6}
    ]},
    {"smiles": "CC(C)C(C(=O)Nc1ccc(S(=O)(=O)N(C)C)cc1)c1ccc(Cl)cc1", "note": "(centres unmarked) [Compound 55, CC(C)C(C(=O)Nc1ccc(cc1)S(=O)(=O)N(C)C)c2ccc(Cl)cc2]", "values": [
      {"measurement": "IC50", "setting": "HeLa cells; Table 2", "result": 12000, "unit": "nM"},
      {"measurement": "viability at 10 µM", "setting": "[1]", "result": 8, "unit": "%"},
      {"measurement": "IC50", "setting": "[2]; [4]", "result": 6.5, "unit": "µM"},
      {"measurement": "Selectivity index", "setting": "[2]", "result": 1.8}
    ]},
    {"smiles": "CN1CCC(NCc2cccc(-c3ccc(S(=O)(=O)NCc4ccccc4)cc3)c2)CC1", "note": "[Compound 56, CN1CCC(CC1)NCc2cccc(c2)c3ccc(cc3)S(=O)(=O)NCc4ccccc4]", "values": [
      {"measurement": "IC50", "setting": "HeLa cells; Table 2", "result": 13000, "unit": "nM"},
      {"measurement": "viability at 10 µM", "setting": "[1]", "result": 2, "unit": "%"},
      {"measurement": "T.b. brucei inhibition in words, this study", "setting": "[2]", "result": "sub-micromolar range; also recorded: activity in the nanomolar range"},
      {"measurement": "IC50", "setting": "[2]; [4]", "result": 0.22, "unit": "µM"},
      {"measurement": "IC50", "setting": "[2]; [5]", "result": "< 1", "unit": "µM"}
    ]},
    {"smiles": "Nc1nccc2ccc(-c3ccc4nccn4c3)cc12", "note": "[Compound 57, Nc1nccc2ccc(cc12)c3ccc4nccn4c3]", "values": [
      {"measurement": "IC50", "setting": "HeLa cells; Table 2", "result": 5400, "unit": "nM"},
      {"measurement": "viability at 10 µM", "setting": "[1]", "result": 3, "unit": "%"},
      {"measurement": "IC50", "setting": "[2]; [4]", "result": 1.2, "unit": "µM"},
      {"measurement": "Selectivity index", "setting": "[2]", "result": 4.5}
    ]},
    {"smiles": "OCCc1ccc(Nc2nccc(-c3nnc4ccccn34)n2)cc1", "note": "[Compound 58, OCCc1ccc(Nc2nccc(n2)c3nnc4ccccn34)cc1]", "values": [
      {"measurement": "IC50", "setting": "HeLa cells; Table 2", "result": "> 25000", "unit": "nM"},
      {"measurement": "viability at 10 µM", "setting": "[1]", "result": 11, "unit": "%"},
      {"measurement": "IC50", "setting": "[2]; [4]", "result": 1.5, "unit": "µM"},
      {"measurement": "Selectivity index", "setting": "[2]", "result": "> 17"}
    ]},
    {"smiles": "CCCn1c(NC(=O)c2ccc3ccccc3n2)nc2ccccc21", "note": "[Compound 59, CCCn1c(NC(=O)c2ccc3ccccc3n2)nc4ccccc14]", "values": [
      {"measurement": "IC50", "setting": "HeLa cells; Table 2", "result": "> 25000", "unit": "nM"},
      {"measurement": "viability at 10 µM", "setting": "[1]", "result": 2, "unit": "%"},
      {"measurement": "IC50", "setting": "[2]; [4]", "result": 7.1, "unit": "µM"},
      {"measurement": "Selectivity index", "setting": "[2]", "result": "> 3.5"}
    ]},
    {"smiles": "Oc1c(I)cc(I)c2cccnc12", "note": "[Compound 60, Oc1c(I)cc(I)c2cccnc12]", "values": [
      {"measurement": "IC50", "setting": "HeLa cells; Table 2", "result": "> 25000", "unit": "nM"},
      {"measurement": "viability at 10 µM", "setting": "[1]", "result": 1, "unit": "%"},
      {"measurement": "IC50", "setting": "[2]; [4]", "result": 2, "unit": "µM"},
      {"measurement": "Selectivity index", "setting": "[2]", "result": "> 13"}
    ]},
    {"smiles": "CS(=O)(=O)c1ccc(C(=O)N(CC2CCCO2)c2nc3ccccc3s2)cc1[N+](=O)[O-]", "note": "(centres unmarked) [Compound 61, CS(=O)(=O)c1ccc(cc1[N+](=O)[O-])C(=O)N(CC2CCCO2)c3nc4ccccc4s3]", "values": [
      {"measurement": "IC50", "setting": "HeLa cells; Table 2", "result": "> 25000", "unit": "nM"},
      {"measurement": "viability at 10 µM", "setting": "[1]", "result": 0, "unit": "%"},
      {"measurement": "IC50", "setting": "[2]; [4]", "result": 11, "unit": "µM"},
      {"measurement": "Selectivity index", "setting": "[2]", "result": "> 2.3"}
    ]}
  ]
}
